Test results: US10104891B2 (priority 2014, dated 2018)

Legend:
Type in all cases: in vivo
[1] = system: Pseudoperonospora cubensis; assay: Test 2: control effect against cucumber downy mildew; conditions: control value vs untreated section
Procedure: (§1) A 10% wettable powder created according to the Pharmaceutical Formulation Example 1 was diluted with a Tween20 solution prepared to a concentration of 1/5000, then the compound of formula [1] was prepared to a concentration of 4 ppm. Further, the compound of formula [1] in Test 4 was adjusted to a concentration of 1,000 ppm.
<Test 2 Test of Control Effect Against Cucumber Downy Mildew>
(§2) Test suspension was applied to cucumber at the 2 leaf stage (species: Sagami hanjiro) in an amount of 20 ml per seedling. One day after application, zoospore suspension of Pseudoperonospora cubensis adjusted to a concentration of 1.0×10^4 units/ml was misted/inoculated, and the seedlings were incubated in a moist chamber adjusted to 22° C. for 16 hr. Then, the onset of the disease was induced in the chamber, and the lesion area rate on the leaves 5 days after inoculation was investigated to compute the control value using the formula below. control value={1−onset area rate of the leaves that were applied the test agent/onset area rate of untreated leaves}×100 Computational formula of the control value: […]

[2] = system: Plasmopara viticola; assay: Test 3: control effect against grape downy mildew; conditions: control value vs untreated section
Procedure: as §1
<Test 3 Test of Control Effect Against Grape Downy Mildew>
as §2, with “grape seedling” for “cucumber at the 2 leaf stage”, “Neomuscat)” for “Sagami hanjiro)”, “Plasmopara viticola” for “Pseudoperonospora cubensis”

[3] = system: Phytophthora infestans; assay: whole plant or invertebrate; conditions: tomato late blight; control value vs untreated section

Row | SMILES | control value (Test 2) [1] | control value (Test 3) [2] | control value (Test 1) [3]
1 | Cc1ccc2c(c1)COC(c1csc(C3CCN(C(=O)Cn4nc(C(F)(F)F)cc4C)CC3)n1)OC2 (stereo not drawn) [Compound 1-20] | 100 | 100 | 100
2 | O=C(Cn1nc(C(F)(F)F)cc1C(F)(F)F)N1CCC(c2nc(C3OCc4cccc(C=NO)c4CO3)cs2)CC1 (stereo not drawn) [Compound 1-149] | 100 | 100 | 100
3 | Cc1cc(C(F)(F)F)nn1CC(=O)N1CCC(c2nc(C3OCc4ccc(Br)cc4CO3)cs2)CC1 (stereo not drawn) [Compound 1-98] | 100 | 100 | 100
4 | COc1ccc(OS(C)(=O)=O)c2c1COC(c1csc(C3CCN(C(=O)Cn4nc(C(F)(F)F)cc4Cl)CC3)n1)OC2 (stereo not drawn) [Compound 1-108] | 100 | 100 | 100
5 | COc1cccc2c1COC(c1csc(C3CCN(C(=O)Cn4nc(C(F)(F)F)cc4C)CC3)n1)OC2 (stereo not drawn) [Compound 1-135] | 100 | 100 | 100
6 | O=C(Cn1nc(C(F)(F)F)cc1C(F)(F)F)N1CCC(c2nc(C3OCc4ccccc4CO3)cs2)CC1 [Compound 1-85] | 100 | 100 | 100
7 | Cc1cc(C(F)(F)F)nn1CC(=O)N1CCC(c2nc(C3OCc4c(O)ccc(F)c4CO3)cs2)CC1 (stereo not drawn) [Compound 1-161] | 100 | 100 | 100
8 | COc1ccc(C)c2c1COC(c1csc(C3CCN(C(=O)Cc4cc(Cl)ccc4Cl)CC3)n1)OC2 (stereo not drawn) [Compound 2-46] | 100 | 100 | 100
9 | CS(=O)(=O)Oc1ccc(Cl)c2c1COC(c1csc(C3CCN(C(=O)Cc4cc(Cl)ccc4Cl)CC3)n1)OC2 (stereo not drawn) [Compound 2-41] | 100 | 100 | 100
10 | Cc1cc(C(F)(F)F)nn1C(C)C(=O)N1CCC(c2nc(C3OCc4cccc(OS(C)(=O)=O)c4CO3)cs2)CC1 (stereo not drawn) [Compound 1-152] | 100 | 100 | 100
11 | Cc1cc(C(F)(F)F)nn1CC(=O)N1CCC(c2nc(C3OCc4c(OC(F)F)ccc(OS(C)(=O)=O)c4CO3)cs2)CC1 (stereo not drawn) [Compound 1-143] | 100 | 100 | 100
12 | COc1ccc(OS(C)(=O)=O)c2c1COC(c1csc(C3CCN(C(=O)Cn4nc(C(F)(F)F)cc4C(F)(F)F)CC3)n1)OC2 (stereo not drawn) [Compound 1-117] | 100 | 100 | 100
13 | Cc1ccc(C)c(CC(=O)N2CCC(c3nc(C4OCc5c(F)ccc(OS(C)(=O)=O)c5CO4)cs3)CC2)c1 (stereo not drawn) [Compound 2-8] | 100 | 100 | 100
14 | O=C(Cn1nc(C(F)(F)F)cc1C(F)(F)F)N1CCC(c2nc(C3OCc4cccc(Cl)c4CO3)cs2)CC1 (stereo not drawn) [Compound 1-93] | 100 | 100 | 100
15 | O=C(Cn1nc(C(F)F)cc1C(F)F)N1CCC(c2nc(C3OCc4ccc(Br)cc4CO3)cs2)CC1 (stereo not drawn) [Compound 1-99] | 100 | 100 | 100
16 | Cc1cc(C(F)(F)F)nn1CC(=O)N1CCC(c2nc(C3OCc4cccc(-c5ccccc5)c4CO3)cs2)CC1 (stereo not drawn) [Compound 1-56] | 100 | 100 | 90
17 | O=C(Cn1nc(C(F)F)cc1C(F)F)N1CCC(c2nc(C3OCc4cccc(C=NO)c4CO3)cs2)CC1 (stereo not drawn) [Compound 1-145] | 100 | 100 | 100
